Experimental data published in ChEMBL document CHEMBL4507291 (2021).

Columns and labels:
[1] = target: T1, Muscarinic acetylcholine receptor M4 (Homo sapiens) (UniProt P08173); conditions: Compound concentration 10.0 uM
T1 sequence (whole entry): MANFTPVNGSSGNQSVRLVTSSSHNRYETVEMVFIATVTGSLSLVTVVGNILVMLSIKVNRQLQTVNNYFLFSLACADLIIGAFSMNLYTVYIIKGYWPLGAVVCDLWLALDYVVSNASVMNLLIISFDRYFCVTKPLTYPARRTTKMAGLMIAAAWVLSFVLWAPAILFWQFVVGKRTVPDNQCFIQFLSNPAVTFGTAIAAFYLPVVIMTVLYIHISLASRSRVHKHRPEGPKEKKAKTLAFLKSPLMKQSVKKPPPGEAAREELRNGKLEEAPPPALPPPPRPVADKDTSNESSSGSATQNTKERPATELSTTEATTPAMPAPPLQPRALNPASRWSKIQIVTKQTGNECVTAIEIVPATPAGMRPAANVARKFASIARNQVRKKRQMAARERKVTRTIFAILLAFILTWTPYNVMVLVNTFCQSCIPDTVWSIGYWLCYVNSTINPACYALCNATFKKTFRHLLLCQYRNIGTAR

[2] = target: Glutamate receptor ionotropic, kainate (Rattus norvegicus) (UniProt P22756+Q01812+P42260+P42264+Q63273); experiment: Inhibition of Glutamate, Kainate at 10 µM in the Eurofins-Panlabs radioligand binding assay (Eurofins_assay_232700); conditions: Compound concentration 10.0 uM
[3] = target: Serine/threonine-protein kinase PLK2 (Homo sapiens) (UniProt Q9NYY3); experiment: PLK2 Kinase screen; conditions: Compound concentration 1.0 uM
[4] = target: T2, Ephrin type-A receptor 8 (Homo sapiens) (UniProt P29322); experiment: EPHA8 Kinase screen; conditions: Compound concentration 1.0 uM
T2 sequence (whole entry): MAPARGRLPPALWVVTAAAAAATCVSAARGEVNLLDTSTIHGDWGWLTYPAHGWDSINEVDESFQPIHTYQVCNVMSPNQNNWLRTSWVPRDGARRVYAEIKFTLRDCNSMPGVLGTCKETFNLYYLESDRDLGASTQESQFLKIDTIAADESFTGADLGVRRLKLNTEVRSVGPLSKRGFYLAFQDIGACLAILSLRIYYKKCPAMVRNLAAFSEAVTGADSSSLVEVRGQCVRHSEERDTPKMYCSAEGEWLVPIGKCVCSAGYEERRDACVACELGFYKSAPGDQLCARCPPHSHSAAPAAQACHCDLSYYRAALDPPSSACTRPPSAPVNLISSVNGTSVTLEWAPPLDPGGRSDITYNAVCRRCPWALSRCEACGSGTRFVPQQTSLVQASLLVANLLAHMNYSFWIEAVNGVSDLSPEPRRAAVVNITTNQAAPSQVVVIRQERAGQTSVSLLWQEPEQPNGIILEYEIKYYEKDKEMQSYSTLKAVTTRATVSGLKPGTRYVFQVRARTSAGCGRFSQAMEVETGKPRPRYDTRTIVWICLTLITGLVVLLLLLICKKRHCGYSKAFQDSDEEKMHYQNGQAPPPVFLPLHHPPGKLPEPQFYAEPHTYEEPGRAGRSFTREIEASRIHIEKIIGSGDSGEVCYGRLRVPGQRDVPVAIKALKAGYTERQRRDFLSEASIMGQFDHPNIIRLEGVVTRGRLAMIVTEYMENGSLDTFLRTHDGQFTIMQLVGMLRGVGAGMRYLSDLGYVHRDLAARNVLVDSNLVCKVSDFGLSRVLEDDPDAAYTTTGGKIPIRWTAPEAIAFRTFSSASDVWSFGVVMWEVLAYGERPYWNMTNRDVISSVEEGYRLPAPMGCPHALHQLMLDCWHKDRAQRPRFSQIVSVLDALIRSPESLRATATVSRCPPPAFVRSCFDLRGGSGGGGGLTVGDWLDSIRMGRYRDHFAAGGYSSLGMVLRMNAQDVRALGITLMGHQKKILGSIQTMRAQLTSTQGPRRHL

[5] = target: Mitogen-activated protein kinase kinase kinase 20 (Homo sapiens) (UniProt Q9NYL2); experiment: ZAK Kinase screen; conditions: Compound concentration 1.0 uM
[6] = target: Mitogen-activated protein kinase kinase kinase 14 (Homo sapiens) (UniProt Q99558); experiment: MAP3K14 (NIK) Kinase screen; conditions: Compound concentration 1.0 uM
[7] = target: Glycogen synthase kinase-3 beta (Homo sapiens) (UniProt P49841); experiment: GSK3B (GSK3 beta) Kinase screen; conditions: Compound concentration 1.0 uM
[8] = target: Protein kinase C alpha type (Homo sapiens) (UniProt P17252); experiment: PRKCA (PKC alpha) Kinase screen; conditions: Compound concentration 1.0 uM
[9] = target: T3, Activin receptor type-1B (Homo sapiens) (UniProt P36896); experiment: ACVR1B (ALK4) Kinase screen; conditions: Compound concentration 1.0 uM
T3 sequence (whole entry): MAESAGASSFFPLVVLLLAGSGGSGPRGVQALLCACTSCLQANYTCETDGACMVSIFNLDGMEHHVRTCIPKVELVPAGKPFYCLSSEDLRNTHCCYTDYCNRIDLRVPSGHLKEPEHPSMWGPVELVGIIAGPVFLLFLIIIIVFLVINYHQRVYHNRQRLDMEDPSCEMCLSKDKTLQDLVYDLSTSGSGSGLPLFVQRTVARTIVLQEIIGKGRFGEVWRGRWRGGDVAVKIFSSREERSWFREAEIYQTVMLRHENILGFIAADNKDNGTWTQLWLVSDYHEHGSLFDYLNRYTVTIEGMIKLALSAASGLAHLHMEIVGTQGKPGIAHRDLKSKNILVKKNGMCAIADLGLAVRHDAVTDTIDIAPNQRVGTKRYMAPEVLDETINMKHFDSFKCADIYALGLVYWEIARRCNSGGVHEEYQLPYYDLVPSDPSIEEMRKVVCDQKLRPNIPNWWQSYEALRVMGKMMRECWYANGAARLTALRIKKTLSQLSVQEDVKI

Measured: inhibition

Chain of Mitogen-activated protein kinase kinase kinase 20 (Homo sapiens) (Q9NYL2 2-800 limits assumed): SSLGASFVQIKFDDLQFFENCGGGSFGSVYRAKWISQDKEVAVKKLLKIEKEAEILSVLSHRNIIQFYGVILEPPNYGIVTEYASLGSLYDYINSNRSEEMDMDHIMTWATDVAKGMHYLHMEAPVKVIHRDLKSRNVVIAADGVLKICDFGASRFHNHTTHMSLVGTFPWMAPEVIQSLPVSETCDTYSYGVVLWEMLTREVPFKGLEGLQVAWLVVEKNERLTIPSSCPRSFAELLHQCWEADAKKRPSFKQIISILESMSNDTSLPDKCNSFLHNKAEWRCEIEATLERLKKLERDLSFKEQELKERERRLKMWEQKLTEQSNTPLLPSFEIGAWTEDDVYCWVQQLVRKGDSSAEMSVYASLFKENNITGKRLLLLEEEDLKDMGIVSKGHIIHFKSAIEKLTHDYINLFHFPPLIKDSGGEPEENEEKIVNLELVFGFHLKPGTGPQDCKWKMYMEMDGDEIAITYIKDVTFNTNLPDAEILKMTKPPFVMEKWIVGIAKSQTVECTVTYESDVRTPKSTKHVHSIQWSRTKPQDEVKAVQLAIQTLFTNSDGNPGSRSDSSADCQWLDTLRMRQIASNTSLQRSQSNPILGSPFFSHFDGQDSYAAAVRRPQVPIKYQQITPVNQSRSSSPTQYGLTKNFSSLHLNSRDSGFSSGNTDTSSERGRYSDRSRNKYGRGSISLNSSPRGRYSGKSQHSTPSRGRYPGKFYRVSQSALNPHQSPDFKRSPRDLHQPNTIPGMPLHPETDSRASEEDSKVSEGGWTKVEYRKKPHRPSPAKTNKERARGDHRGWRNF
Chain of Glycogen synthase kinase-3 beta (Homo sapiens) (P49841 whole entry, looked up): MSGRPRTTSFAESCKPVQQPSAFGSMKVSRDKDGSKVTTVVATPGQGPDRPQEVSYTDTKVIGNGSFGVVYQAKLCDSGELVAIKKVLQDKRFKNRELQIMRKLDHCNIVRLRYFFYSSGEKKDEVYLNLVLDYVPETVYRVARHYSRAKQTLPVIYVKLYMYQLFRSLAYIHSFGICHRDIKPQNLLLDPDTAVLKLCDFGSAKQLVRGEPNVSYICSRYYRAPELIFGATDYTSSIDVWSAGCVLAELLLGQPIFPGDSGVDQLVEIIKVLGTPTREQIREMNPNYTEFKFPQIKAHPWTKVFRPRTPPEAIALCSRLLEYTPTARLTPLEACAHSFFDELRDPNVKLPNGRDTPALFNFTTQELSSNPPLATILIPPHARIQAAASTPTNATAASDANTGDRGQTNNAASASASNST
Chain of Mitogen-activated protein kinase kinase kinase 14 (Homo sapiens) (Q99558 whole entry, looked up): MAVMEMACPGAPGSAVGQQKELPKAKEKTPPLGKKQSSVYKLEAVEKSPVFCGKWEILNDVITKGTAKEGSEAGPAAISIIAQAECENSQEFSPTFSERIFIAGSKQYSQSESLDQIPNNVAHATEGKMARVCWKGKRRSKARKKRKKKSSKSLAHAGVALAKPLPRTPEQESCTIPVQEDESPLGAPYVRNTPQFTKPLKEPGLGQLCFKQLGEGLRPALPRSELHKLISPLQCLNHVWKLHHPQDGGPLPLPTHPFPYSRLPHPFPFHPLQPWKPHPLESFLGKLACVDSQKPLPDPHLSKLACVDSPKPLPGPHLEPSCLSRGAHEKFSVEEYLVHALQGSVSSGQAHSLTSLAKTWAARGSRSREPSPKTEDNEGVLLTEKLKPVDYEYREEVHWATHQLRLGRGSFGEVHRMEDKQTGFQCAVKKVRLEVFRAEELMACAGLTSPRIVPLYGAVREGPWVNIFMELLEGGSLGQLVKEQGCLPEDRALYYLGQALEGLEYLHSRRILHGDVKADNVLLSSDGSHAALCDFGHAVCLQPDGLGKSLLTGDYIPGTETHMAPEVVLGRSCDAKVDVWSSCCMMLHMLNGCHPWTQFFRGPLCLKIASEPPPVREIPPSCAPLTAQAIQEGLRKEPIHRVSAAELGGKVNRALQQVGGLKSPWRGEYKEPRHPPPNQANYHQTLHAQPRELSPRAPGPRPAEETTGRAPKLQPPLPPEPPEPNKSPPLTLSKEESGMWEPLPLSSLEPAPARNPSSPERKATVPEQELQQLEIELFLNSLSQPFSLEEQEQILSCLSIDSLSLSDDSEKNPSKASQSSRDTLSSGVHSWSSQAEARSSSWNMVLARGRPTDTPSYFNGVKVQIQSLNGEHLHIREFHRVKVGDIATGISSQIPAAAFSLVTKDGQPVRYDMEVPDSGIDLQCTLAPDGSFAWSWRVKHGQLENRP
Chain of Serine/threonine-protein kinase PLK2 (Homo sapiens) (Q9NYY3 whole entry, looked up): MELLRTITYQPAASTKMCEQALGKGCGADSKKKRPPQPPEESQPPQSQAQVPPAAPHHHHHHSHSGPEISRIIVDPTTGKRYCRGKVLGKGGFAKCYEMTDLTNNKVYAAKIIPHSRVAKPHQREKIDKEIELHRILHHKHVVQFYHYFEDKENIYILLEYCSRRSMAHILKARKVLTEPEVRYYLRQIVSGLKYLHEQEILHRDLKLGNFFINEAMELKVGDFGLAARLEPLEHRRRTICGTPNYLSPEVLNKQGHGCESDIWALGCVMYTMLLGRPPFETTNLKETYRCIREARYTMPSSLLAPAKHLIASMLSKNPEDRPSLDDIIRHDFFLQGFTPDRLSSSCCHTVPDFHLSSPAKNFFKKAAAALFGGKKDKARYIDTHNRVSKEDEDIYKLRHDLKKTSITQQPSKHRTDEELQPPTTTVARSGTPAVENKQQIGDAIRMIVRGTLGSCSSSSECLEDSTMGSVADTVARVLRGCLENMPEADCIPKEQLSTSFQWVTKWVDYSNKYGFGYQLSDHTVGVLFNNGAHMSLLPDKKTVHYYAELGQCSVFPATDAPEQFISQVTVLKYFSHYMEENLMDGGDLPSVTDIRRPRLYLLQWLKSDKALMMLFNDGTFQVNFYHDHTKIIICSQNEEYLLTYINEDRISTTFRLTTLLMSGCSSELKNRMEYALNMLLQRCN

C[C@@H]1CN(c2cc(-c3n[nH]c4ccc(OC5(C)CC5)cc34)ncn2)C[C@H](C)O1 [MLi-2]
inactive: [1] 26% | [2] 12% | [3] 12.7% | [4] 7.44% | [5] 4.32% | [6] 78.8% | [7] 3.53% | [8] -4.08% | [9] -0.724%
